Test results taken from PMC4125815, “Crystal structure of tRNA m^1A58 methyltransferase TrmI from Aquifex aeolicus in complex with S-adenosyl-L-methionine” (Journal of Structural and Functional Genomics, 2014).

Molecular target: T1, A. aeolicus TrmI (Aquifex aeolicus, UniProt O66653)
T1 construct: gene aq_311
Test: X-ray crystal structure of the complex, […] Å
Assay type: binding
Conditions: co-crystallised with 2 mM AdoMet, pH 8.4, 20 °C; methyl donor site in C-terminal domain, 4 AdoMet per tetramer

T1 sequence (O66653 1-248): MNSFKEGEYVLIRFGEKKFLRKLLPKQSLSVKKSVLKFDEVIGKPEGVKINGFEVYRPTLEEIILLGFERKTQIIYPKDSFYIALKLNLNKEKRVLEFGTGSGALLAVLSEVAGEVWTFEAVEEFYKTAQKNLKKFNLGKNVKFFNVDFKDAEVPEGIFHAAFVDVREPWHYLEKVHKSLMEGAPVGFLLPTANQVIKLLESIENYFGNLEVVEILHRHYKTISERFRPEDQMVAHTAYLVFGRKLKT

C[S+](CC[C@H](N)C(=O)O)C[C@H]1O[C@@H](n2cnc3c(N)ncnc32)[C@H](O)[C@@H]1O (stereo partly shown) [AdoMet]
X-ray crystal structure of the complex, 2.2 Å: The methyl donor AdoMet is bound in the C-terminal domain of the protein
